One series can be described thus: method code SF-HPLC, from Marrel, C.; Boss, G.; Van, H.; Testa, B.; Cooper, D.; Jenner, P.; Marsden, C. (1985). L-DOPA esters as potential prodrugs. Part. I. Physicochemical properties. Eur J Med Chem, 20(5)459-465.
Conditions: not given
Turning to `CC(O)COC(=O)[C@@H](N)Cc1ccc(O)c(O)c1` (stereo not given in full), the lipophilicity (logP) is -0.49.
With `N[C@@H](Cc1ccc(O)c(O)c1)C(=O)OCC1CCCCO1` (stereo not given in full), the logP came to 0.47.
On to `COCC(C)OC(=O)[C@@H](N)Cc1ccc(O)c(O)c1` (stereo not given in full), for which the log partition coefficient (logP) is 0.08.

Staying with this series, now noted: pH 7.4.
As to `N[C@@H](Cc1ccc(O)c(O)c1)C(=O)OCCOc1ccccc1`, the pH-dependent lipophilicity (logD) stood at 1.35.
Same read-out and setting: to `CCCOC(=O)[C@@H](N)Cc1ccc(O)c(O)c1` belongs 0.55.
On the same count and under the same terms, to `CCOC(=O)[C@@H](N)Cc1ccc(O)c(O)c1` belongs 0.01.
As for `N[C@@H](Cc1ccc(O)c(O)c1)C(=O)OC1CCCCC1`, the logD worked out at 1.53.
The same measure, in the same setting: to `COc1ccc(CCOC(=O)[C@@H](N)Cc2ccc(O)c(O)c2)cc1` belongs 1.5; to `N[C@@H](Cc1ccc(O)c(O)c1)C(=O)OCCc1ccccc1`, 1.57.
Still for that read-out and setting: to `N[C@@H](Cc1ccc(O)c(O)c1)C(=O)OCCc1ccc(Cl)cc1` belongs 2.12.

The record behind these values is the SangsterLogP compilation.
